Source: US10597388B2, “Pyridazinone herbicides” (FMC CORPORATION, priority 2014, dated 2020)

What was measured:
Assay in all cases: Test D controlled growth environment herbicide test, pre- and postemergence
Assay type in all cases: in vivo
[1] = tested on: barley, spring (spring barley, Hordeum vulgare)
Method in brief: (§1)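 Pre-emergence: seeds sown in silt loam soil were sprayed with compound in a non-phytotoxic solvent mix containing surfactant. Post-emergence: plants at 2 to 18 cm (1- to 4-leaf stage) in peat moss/vermiculite medium got the same formulation. Visual 0–100 rating versus controls after 14 to 21 d.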

[2] = tested on: barley, winter (winter barley, Hordeum vulgare)
Method in brief: as §1

[3] = tested on: blackgrass (Alopecurus myosuroides)
Method in brief: as §1

[4] = tested on: bromegrass, downy (downy bromegrass, Bromus tectorum)
Method in brief: as §1

[5] = tested on: chamomile (scentless chamomile, Matricaria inodora)
Method in brief: as §1

[6] = tested on: chickweed (common chickweed, Stellaria media)
Method in brief: as §1

[7] = tested on: deadnettle (henbit deadnettle, Lamium amplexicaule)
Method in brief: as §1

[8] = tested on: field poppy (Papaver rhoeas)
Method in brief: as §1

[9] = tested on: foxtail, green (green foxtail, Setaria viridis)
Method in brief: as §1

[10] = tested on: lambsquarters (Chenopodium album)
Method in brief: as §1

[11] = tested on: ryegrass, Italian (Italian ryegrass, Lolium multiflorum)
Method in brief: as §1

[12] = tested on: wheat, spring (spring wheat, Triticum aestivum)
Method in brief: as §1

[13] = tested on: wheat, winter (winter wheat, Triticum aestivum)
Method in brief: as §1

[14] = Postemergence, 31 g ai/ha, scale 0 to 100 (0 no effect, 100 complete control)
[15] = Postemergence, 125 g ai/ha, visual rating on scale 0 (no effect) to 100 (complete control), 14 to 21 d
[16] = Postemergence, 250 g ai/ha, scale 0 to 100 (0 no effect, 100 complete control)
[17] = Preemergence, 62 g ai/ha, scale 0 to 100 (0 no effect, 100 complete control)
[18] = Preemergence, 125 g ai/ha, scale 0 to 100 (0 no effect, 100 complete control)
[19] = Preemergence, 250 g ai/ha, scale 0 to 100 (0 no effect, 100 complete control)
[20] = postemergence, 62 g ai/ha, scale 0 to 100, 0 no effect, 100 complete control

CC(=O)Oc1c(C)nn(C)c(=O)c1-c1c(C)cc(C)c2ccccc12 [Compound 153]
80: Plant response rating, Blackgrass [3, 16] | Plant response rating, Blackgrass [3, 17] | Chickweed plant response rating [6, 14] | Plant response rating, Deadnettle [7, 15] | Foxtail, Green plant response rating [9, 14] | Plant response rating, Foxtail, Green [9, 20] | Ryegrass, Italian plant response rating [11, 14]
70: Plant response rating, Blackgrass [3, 20] | Plant response rating, Bromegrass, Downy [4, 16] | Chamomile plant response rating [5, 14] | Deadnettle plant response rating [7, 14] | Plant response rating (scale of 0 to 100), Lambsquarters ([10]; Preemergence, 31 g ai/ha) | Plant response rating, Wheat, Spring [12, 18]
50: Plant response rating, Wheat, Spring [12, 16] | Plant response rating, Wheat, Winter [13, 19]
98: Plant response rating (scale of 0 to 100), Chickweed ([6]; Preemergence, 31 g ai/ha) | Plant response rating (scale of 0 to 100), Deadnettle ([7]; Preemergence, 31 g ai/ha)
0: Plant response rating (scale of 0 to 100), Barley, Spring ([1]; Preemergence, 31 g ai/ha) | Plant response rating, Barley, Spring [1, 17] | Barley, Winter plant response rating [2, 14] | Plant response rating (scale of 0 to 100), Barley, Winter ([2]; Preemergence, 31 g ai/ha)
40: Plant response rating, Barley, Spring [1, 19] | Plant response rating, Barley, Winter [2, 19] | Plant response rating, Wheat, Spring [12, 15]
35: Plant response rating, Bromegrass, Downy [4, 20] | Plant response rating, Wheat, Winter [13, 16]
100: Plant response rating, Chamomile [5, 15] | Plant response rating, Chamomile [5, 16] | Plant response rating (scale of 0 to 100), Chamomile ([5]; Preemergence, 31 g ai/ha) | Plant response rating (scale of 0 to 100), Chamomile ([5]; Preemergence, 62 g ai/ha) | Plant response rating, Chamomile [5, 18] | Plant response rating, Chamomile [5, 19] | Plant response rating, Chickweed [6, 16] | Plant response rating (scale of 0 to 100), Chickweed ([6]; Preemergence, 62 g ai/ha) | Plant response rating, Chickweed [6, 18] | Plant response rating, Chickweed [6, 19] | Plant response rating (scale of 0 to 100), Deadnettle ([7]; Preemergence, 62 g ai/ha) | Plant response rating, Deadnettle [7, 18] | Plant response rating, Deadnettle [7, 19] | Plant response rating, Field Poppy [8, 15] | Plant response rating, Field Poppy [8, 16] | Plant response rating (scale of 0 to 100), Field Poppy ([8]; Preemergence, 31 g ai/ha) | Plant response rating (scale of 0 to 100), Field Poppy ([8]; Preemergence, 62 g ai/ha) | Plant response rating, Field Poppy [8, 18] | Plant response rating, Field Poppy [8, 19] | Plant response rating, Foxtail, Green [9, 18] | Plant response rating, Foxtail, Green [9, 19] | Plant response rating, Lambsquarters [10, 18] | Plant response rating, Lambsquarters [10, 19] | Plant response rating (scale of 0 to 100), Ryegrass, Italian ([11]; Preemergence, 31 g ai/ha) | Plant response rating (scale of 0 to 100), Ryegrass, Italian ([11]; Preemergence, 62 g ai/ha) | Plant response rating, Ryegrass, Italian [11, 18] | Plant response rating, Ryegrass, Italian [11, 19]
95: Plant response rating, Blackgrass [3, 19] | Plant response rating, Bromegrass, Downy [4, 19] | Plant response rating, Chamomile [5, 20] | Plant response rating, Field Poppy [8, 20]
90: Plant response rating, Deadnettle [7, 16] | Plant response rating, Ryegrass, Italian [11, 15] | Plant response rating, Ryegrass, Italian [11, 16] | Plant response rating, Ryegrass, Italian [11, 20]
15: Plant response rating, Barley, Spring [1, 15] | Plant response rating, Wheat, Winter [13, 20]
5: Barley, Spring plant response rating [1, 14] | Plant response rating, Barley, Spring [1, 20] | Plant response rating, Barley, Winter [2, 20] | Plant response rating (scale of 0 to 100), Wheat, Winter ([13]; Preemergence, 31 g ai/ha)
85: Plant response rating, Blackgrass [3, 18] | Plant response rating, Bromegrass, Downy [4, 18] | Plant response rating, Chickweed [6, 15] | Plant response rating, Chickweed [6, 20] | Plant response rating, Foxtail, Green [9, 15] | Plant response rating, Foxtail, Green [9, 16] | Plant response rating (scale of 0 to 100), Lambsquarters ([10]; Preemergence, 62 g ai/ha) | Plant response rating, Wheat, Spring [12, 19]
45: Plant response rating (scale of 0 to 100), Wheat, Spring ([12]; Preemergence, 62 g ai/ha) | Plant response rating, Wheat, Winter [13, 18]
20: Wheat, Spring plant response rating [12, 14] | Plant response rating (scale of 0 to 100), Wheat, Winter ([13]; Preemergence, 62 g ai/ha)
65: Blackgrass plant response rating [3, 14] | Plant response rating, Bromegrass, Downy [4, 15] | Plant response rating, Lambsquarters [10, 15] | Plant response rating, Lambsquarters [10, 20]
75: Plant response rating, Blackgrass [3, 15] | Plant response rating (scale of 0 to 100), Blackgrass ([3]; Preemergence, 31 g ai/ha) | Plant response rating (scale of 0 to 100), Bromegrass, Downy ([4]; Preemergence, 31 g ai/ha) | Plant response rating, Bromegrass, Downy [4, 17] | Plant response rating, Deadnettle [7, 20] | Field Poppy plant response rating [8, 14] | Plant response rating (scale of 0 to 100), Foxtail, Green ([9]; Preemergence, 31 g ai/ha) | Plant response rating (scale of 0 to 100), Foxtail, Green ([9]; Preemergence, 62 g ai/ha) | Lambsquarters plant response rating [10, 14] | Plant response rating, Lambsquarters [10, 16]
30: Plant response rating, Barley, Spring [1, 16] | Plant response rating, Wheat, Spring [12, 20]
25: Plant response rating, Barley, Spring [1, 18] | Plant response rating, Barley, Winter [2, 16] | Plant response rating, Barley, Winter [2, 18] | Bromegrass, Downy plant response rating [4, 14] | Plant response rating (scale of 0 to 100), Wheat, Spring ([12]; Preemergence, 31 g ai/ha) | Plant response rating, Wheat, Winter [13, 15]
10: Plant response rating, Barley, Winter [2, 15] | Plant response rating, Barley, Winter [2, 17] | Wheat, Winter plant response rating [13, 14]
